# Measurements published in patent publication US11446287B2, “Compounds and methods for EP300 or CBP modulation and indications therefor” (Opna Immuno-Oncology SA, priority 2019, dated 2022).
# Molecular target: T1, Recombinant human BRD4 containing dual bromodomains (BRD4-BD12 (1-477)) (Homo sapiens, UniProt O60885)
# T1 construct: Recombinant human BRD4 containing dual bromodomains (BRD4-BD12 (1-477)); made in house; host or cells: E. coli BL21-CodonPlus (DE3), modified pET vector
# Assay: BRD4 Alphascreen binding assay
# Method in brief: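 His-tagged human BRD4 tandem bromodomains (1-477, E. coli) incubated 1 h at room temperature with biotinylated tetra-acetylated H4 (1-21) peptide and compound in HEPES pH 7.5 buffer with 2 mM DTT. AlphaScreen signal read 30 min after adding beads (7.5 μg/ml); IC50 from four-parameter fit after normalization to controls.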
row,SMILES,IC50 [µM]
1,"Cc1noc(C)c1-c1cnc2c(c1)c(-c1cccc(C(=O)O)c1)cn2Cc1ccccn1 [P-0049, 3-(5-(3,5-dimethylisoxazol-4-yl)-1-(pyridin-2-ylmethyl)-1H-pyrrolo[2,3-b]pyridin-3-yl)benzoic acid]",8 to 1000
2,"Cc1noc(C)c1-c1cnc2c(c1)c(-c1cccc(C(=O)O)c1)cn2CC1CC1 [P-0050, 3-(1-(cyclopropylmethyl)-5-(3,5-dimethylisoxazol-4-yl)-1H-pyrrolo[2,3-b]pyridin-3-yl)benzoic acid]",8 to 1000
3,"Cc1noc(C)c1-c1cnc2c(c1)c(C#CC(C)(C)C(=O)O)cn2Cc1ccccc1 [P-0051, 4-(1-benzyl-5-(3,5-dimethylisoxazol-4-yl)-1H-pyrrolo[2,3-b]pyridin-3-yl)-2,2-dimethylbut-3-ynoic acid]",8 to 1000
4,"COC(=O)c1cc(-n2cc(Cc3ccccc3)c3ncc(-c4c(C)noc4C)cc32)ccn1 [P-0052, methyl 4-(3-benzyl-6-(3,5-dimethylisoxazol-4-yl)-1H-pyrrolo[3,2-b]pyridin-1-yl)picolinate]",1 to 8
5,"Cc1noc(C)c1-c1cnc2c(Cc3ccccc3)cn(-c3ccnc(C(=O)O)c3)c2c1 [P-0053, 4-(3-benzyl-6-(3,5-dimethylisoxazol-4-yl)-1H-pyrrolo[3,2-b]pyridin-1-yl)picolinic acid]",1 to 8
6,"Cc1noc(C)c1-c1cnc2c(C(=O)c3ccccc3)cn(-c3ccnc(C(=O)O)c3)c2c1 [P-0054, 4-(3-benzoyl-6-(3,5-dimethylisoxazol-4-yl)-1H-pyrrolo[3,2-b]pyridin-1-yl)picolinic acid]",0.0001 to 1
7,"Cc1noc(C)c1-c1cnc2c(c1)c(-c1ccc(C(=O)O)cc1OC(F)(F)F)cn2-c1ccc(C2CC2)nc1 [P-0388, 4-(1-(6-cyclopropylpyridin-3-yl)-5-(3,5-dimethylisoxazol-4-yl)-1H-pyrrolo[2,3-b]pyridin-3-yl)-3-(trifluoromethoxy)benzoic acid]",1 to 8
8,"Cc1noc(C)c1-c1cnc2c(c1)c(-c1ccc(C(=O)O)cc1OC(F)(F)F)cn2C1CCC(C#N)C1 (stereo not shown) [P-0389, 4-(1-(3-cyanocyclopentyl)-5-(3,5-dimethylisoxazol-4-yl)-1H-pyrrolo[2,3-b]pyridin-3-yl)-3-(trifluoromethoxy)benzoic acid]",1 to 8
9,"Cc1noc(C)c1-c1cnc2c(c1)c(-c1c(Cl)cc(C(=O)O)cc1OCC(F)F)cn2-c1cnc(C2CC2)nc1 [P-0390, 3-chloro-4-(1-(2-cyclopropylpyrimidin-5-yl)-5-(3,5-dimethylisoxazol-4-yl)-1H-pyrrolo[2,3-b]pyridin-3-yl)-5-(2,2-difluoroethoxy)benzoic acid]",1 to 8
10,"Cc1noc(C)c1-c1cnc2c(c1)c(-c1c(Cl)cc(C(=O)O)cc1OC1CCC1)cn2-c1cnc(C2CC2)nc1 [P-0391, 3-chloro-5-cyclobutoxy-4-(1-(2-cyclopropylpyrimidin-5-yl)-5-(3,5-dimethylisoxazol-4-yl)-1H-pyrrolo[2,3-b]pyridin-3-yl)benzoic acid]",1 to 8
11,"COc1ncc(-n2cc(-c3ccc(C(=O)O)cc3OC(F)(F)F)c3cc(-c4c(C)noc4C)cnc32)cn1 [P-0392, 4-(5-(3,5-dimethylisoxazol-4-yl)-1-(2-methoxypyrimidin-5-yl)-1H-pyrrolo[2,3-b]pyridin-3-yl)-3-(trifluoromethoxy)benzoic acid]",1 to 8
12,"Cc1noc(C)c1-c1cnc2c(c1)c(-c1c(Cl)cc(C(=O)O)cc1OC(C)C)cn2-c1cnc(C2CC2)nc1 [P-0393, 3-chloro-4-(1-(2-cyclopropylpyrimidin-5-yl)-5-(3,5-dimethylisoxazol-4-yl)-1H-pyrrolo[2,3-b]pyridin-3-yl)-5-isopropoxybenzoic acid]",1 to 8
13,"Cc1noc(C)c1-c1cnc2c(c1)c(-c1c(F)cc(C(=O)O)cc1OC1CC1)cn2C(C1CC1)C1CC1 [P-0394, 3-cyclopropoxy-4-(1-(dicyclopropylmethyl)-5-(3,5-dimethylisoxazol-4-yl)-1H-pyrrolo[2,3-b]pyridin-3-yl)-5-fluorobenzoic acid]",1 to 8
14,"Cc1noc(C)c1-c1cnc2c(c1)c(-c1c(Cl)cc(C(=O)O)cc1OC(F)(F)F)cn2-c1ncccc1C#N [P-0395, 3-chloro-4-(1-(3-cyanopyridin-2-yl)-5-(3,5-dimethylisoxazol-4-yl)-1H-pyrrolo[2,3-b]pyridin-3-yl)-5-(trifluoromethoxy)benzoic acid]",1 to 8
15,"Cc1noc(C)c1-c1cnc2c(c1)c(-c1c(Cl)cc(C(=O)O)cc1OC1CCC1)cn2-c1ncccc1C#N [P-0396, 3-chloro-4-(1-(3-cyanopyridin-2-yl)-5-(3,5-dimethylisoxazol-4-yl)-1H-pyrrolo[2,3-b]pyridin-3-yl)-5-cyclobutoxybenzoic acid]",1 to 8
16,"Cc1noc(C)c1-c1cnc2c(c1)c(-c1c(F)cc(C(=O)O)cc1OC1CC1)cn2C1CCOCC1 [P-0397, 3-cyclopropoxy-4-(5-(3,5-dimethylisoxazol-4-yl)-1-(tetrahydro-2H-pyran-4-yl)-1H-pyrrolo[2,3-b]pyridin-3-yl)-5-fluorobenzoic acid]",8 to 1000

row,SMILES,IC50 [µM]
1,"CCOc1nc(C(=O)O)c(Cl)cc1-c1cn(C2CCOCC2)c2ncc(-c3c(C)noc3C)cc12 [P-0398, 3-chloro-5-(5-(3,5-dimethylisoxazol-4-yl)-1-(tetrahydro-2H-pyran-4-yl)-1H-pyrrolo[2,3-b]pyridin-3-yl)-6-ethoxypicolinic acid]",8 to 1000
2,"Cc1noc(C)c1-c1cnc2c(c1)c(-c1ccc(C(=O)O)cc1OC(F)(F)F)cn2-c1ccc(=O)n(C)c1 [P-0399, 4-(5-(3,5-dimethylisoxazol-4-yl)-1-(1-methyl-6-oxo-1,6-dihydropyridin-3-yl)-1H-pyrrolo[2,3-b]pyridin-3-yl)-3-(trifluoromethoxy)benzoic acid]",1 to 8
3,"CCc1noc(C)c1-c1cnc2c(c1)c(-c1ccc(C(=O)O)cc1OC(F)(F)F)cn2C1CCOCC1 [P-0400, 4-(5-(3-ethyl-5-methylisoxazol-4-yl)-1-(tetrahydro-2H-pyran-4-yl)-1H-pyrrolo[2,3-b]pyridin-3-yl)-3-(trifluoromethoxy)benzoic acid]",1 to 8
4,"CCc1onc(C)c1-c1cnc2c(c1)c(-c1ccc(C(=O)O)cc1OC(F)(F)F)cn2C1CCOCC1 [P-0401, 4-(5-(5-ethyl-3-methylisoxazol-4-yl)-1-(tetrahydro-2H-pyran-4-yl)-1H-pyrrolo[2,3-b]pyridin-3-yl)-3-(trifluoromethoxy)benzoic acid]",1 to 8
5,"Cc1cc(C(=O)O)cc(OC(C)C)c1-c1cn(C2CCOCC2)c2ncc(-c3c(C)noc3C)cc12 [P-0402, 4-(5-(3,5-dimethylisoxazol-4-yl)-1-(tetrahydro-2H-pyran-4-yl)-1H-pyrrolo[2,3-b]pyridin-3-yl)-3-isopropoxy-5-methylbenzoic acid]",1 to 8
6,"Cc1noc(C)c1-c1cnc2c(c1)c(-c1ccc(C(=O)O)cc1OC(C)C)cn2C1(C)CCOCC1 [P-0403, 4-(5-(3,5-dimethylisoxazol-4-yl)-1-(4-methyltetrahydro-2H-pyran-4-yl)-1H-pyrrolo[2,3-b]pyridin-3-yl)-3-isopropoxybenzoic acid]",8 to 1000
7,"Cc1noc(C)c1-c1cnc2c(c1)c(-c1c(Cl)cc(C(=O)O)cc1OC(C)C)cn2C1(C)CCOCC1 [P-0404, 3-chloro-4-(5-(3,5-dimethylisoxazol-4-yl)-1-(4-methyltetrahydro-2H-pyran-4-yl)-1H-pyrrolo[2,3-b]pyridin-3-yl)-5-isopropoxybenzoic acid]",8 to 1000
8,"CCOc1nc(C(=O)O)ccc1-c1cn(C2(C)CCOCC2)c2ncc(-c3c(C)noc3C)cc12 [P-0405, 5-(5-(3,5-dimethylisoxazol-4-yl)-1-(4-methyltetrahydro-2H-pyran-4-yl)-1H-pyrrolo[2,3-b]pyridin-3-yl)-6-ethoxypicolinic acid]",1 to 8
9,"CCOc1nc(C(=O)O)c(Cl)cc1-c1cn([C@H]2CCOC2)c2ncc(-c3c(C)noc3C)cc12 [P-0406, (S)-3-chloro-5-(5-(3,5-dimethylisoxazol-4-yl)-1-(tetrahydrofuran-3-yl)-1H-pyrrolo[2,3-b]pyridin-3-yl)-6-ethoxypicolinic acid]",8 to 1000
10,"Cc1noc(C)c1-c1cnc2c(c1)c(-c1ccc(C(=O)O)cc1OC(C)C)cn2C1(C)CCOC1 (stereo not shown) [P-0407, 4-(5-(3,5-dimethylisoxazol-4-yl)-1-(3-methyltetrahydrofuran-3-yl)-1H-pyrrolo[2,3-b]pyridin-3-yl)-3-isopropoxybenzoic acid]",8 to 1000
11,"Cc1noc(C)c1-c1cnc2c(c1)c(-c1c(Cl)cc(C(=O)O)cc1OC(C)C)cn2C1(C)CCOC1 (stereo not shown) [P-0408, 3-chloro-4-(5-(3,5-dimethylisoxazol-4-yl)-1-(3-methyltetrahydrofuran-3-yl)-1H-pyrrolo[2,3-b]pyridin-3-yl)-5-isopropoxybenzoic acid]",8 to 1000
12,"Cc1noc(C)c1-c1cnc2c(c1)c(-c1c(Cl)cc(C(=O)O)cc1OC1CC1)cn2-c1ncccc1C#N [P-0409, 3-chloro-4-(1-(3-cyanopyridin-2-yl)-5-(3,5-dimethylisoxazol-4-yl)-1H-pyrrolo[2,3-b]pyridin-3-yl)-5-cyclopropoxybenzoic acid]",1 to 8
13,"Cc1noc(C)c1-c1cnc2c(c1)c(-c1c(F)cc(C(=O)O)cc1OC1CCC1)cn2C1CCOCC1 [P-0410, 3-cyclobutoxy-4-(5-(3,5-dimethylisoxazol-4-yl)-1-(tetrahydro-2H-pyran-4-yl)-1H-pyrrolo[2,3-b]pyridin-3-yl)-5-fluorobenzoic acid]",8 to 1000
14,"CCOc1nc(C(=O)O)cc(C)c1-c1cn(C2CCOCC2)c2ncc(-c3c(C)noc3C)cc12 [P-0411, 5-(5-(3,5-dimethylisoxazol-4-yl)-1-(tetrahydro-2H-pyran-4-yl)-1H-pyrrolo[2,3-b]pyridin-3-yl)-6-ethoxy-4-methylpicolinic acid]",8 to 1000
15,"CCOc1nc(C(=O)O)cc(C)c1-c1cn(-c2ccc(F)cc2F)c2ncc(-c3c(C)noc3C)cc12 [P-0412, 5-(1-(2,4-difluorophenyl)-5-(3,5-dimethylisoxazol-4-yl)-1H-pyrrolo[2,3-b]pyridin-3-yl)-6-ethoxy-4-methylpicolinic acid]",1 to 8
